Reference: PubChem BioAssay AID1963830 (Molecular Pharmacology Branch, DTP, NCI, 2024)

Test system: 922993-354-T-J3-PDC complex spheroid viability
Assay: Anticancer human tumor 922993-354-T-J3-PDC patient-derived endometrial carcinoma cell line growth inhibition [POLQ]
Conditions: for IC50: curve of first compound; for viability, T/C: stronger effect = lower value
Outline: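 Patient-derived tumour cells were co-cultured with HUVEC and mesenchymal stem cells as multicellular spheroids at 37 °C. They were treated with POLQ inhibitors (novobiocin, ART-558, RP6685) alone or combined with other agents. Top concentrations were at or near clinical Cmax (otherwise 10 microM; SN-38 at 1 microM), decreasing in half-log steps.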

[1] = second compound 0.0316 µM, first compound 0.0316 µM
[2] = second compound 0.0316 µM, first compound 0.1 µM
[3] = second compound 0.0316 µM, first compound 0.316 µM
[4] = second compound 0.0316 µM, first compound 1 µM
[5] = second compound 0.0316 µM, first compound 3.16 µM
[6] = second compound 0.0316 µM, first compound 10 µM
[7] = second compound 0.1 µM, first compound 0.0316 µM
[8] = second compound 0.1 µM, first compound 0.1 µM
[9] = second compound 0.1 µM, first compound 0.316 µM
[10] = second compound 0.1 µM, first compound 1 µM
[11] = second compound 0.1 µM, first compound 3.16 µM
[12] = second compound 0.1 µM, first compound 10 µM
[13] = second compound 0.316 µM, first compound 0.0316 µM
[14] = second compound 0.316 µM, first compound 0.1 µM
[15] = second compound 0.316 µM, first compound 0.316 µM
[16] = second compound 0.316 µM, first compound 1 µM
[17] = second compound 0.316 µM, first compound 3.16 µM
[18] = second compound 0.316 µM, first compound 10 µM
[19] = second compound 1 µM, first compound 0.0316 µM
[20] = second compound 1 µM, first compound 0.1 µM
[21] = second compound 1 µM, first compound 0.316 µM
[22] = second compound 1 µM, first compound 1 µM
[23] = second compound 1 µM, first compound 3.16 µM
[24] = second compound 1 µM, first compound 10 µM
[25] = second compound 3.16 µM, first compound 0.0316 µM
[26] = second compound 3.16 µM, first compound 0.1 µM
[27] = second compound 3.16 µM, first compound 0.316 µM
[28] = second compound 3.16 µM, first compound 1 µM
[29] = second compound 3.16 µM, first compound 3.16 µM
[30] = second compound 3.16 µM, first compound 10 µM
[31] = second compound 10 µM, first compound 0.0316 µM
[32] = second compound 10 µM, first compound 0.1 µM
[33] = second compound 10 µM, first compound 0.316 µM
[34] = second compound 10 µM, first compound 1 µM
[35] = second compound 10 µM, first compound 3.16 µM
[36] = second compound 10 µM, first compound 10 µM
[37] = second compound 0.0316 µM, first compound 0.00316 µM
[38] = second compound 0.0316 µM, first compound 0.01 µM
[39] = second compound 0.1 µM, first compound 0.00316 µM
[40] = second compound 0.1 µM, first compound 0.01 µM
[41] = second compound 0.316 µM, first compound 0.00316 µM
[42] = second compound 0.316 µM, first compound 0.01 µM
[43] = second compound 1 µM, first compound 0.00316 µM
[44] = second compound 1 µM, first compound 0.01 µM
[45] = second compound 3.16 µM, first compound 0.00316 µM
[46] = second compound 3.16 µM, first compound 0.01 µM
[47] = second compound 10 µM, first compound 0.00316 µM
[48] = second compound 10 µM, first compound 0.01 µM
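Note: spheroids exposed to the agents for one week.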
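Throughout, for viability, T/C: 100% = DMSO vehicle control wells.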

## CCCS(=O)(=O)Nc1ccc(F)c(C(=O)c2c[nH]c3ncc(-c4ccc(Cl)cc4)cc23)c1F + Nc1ccc(C#CCN(C(=O)Cc2ncc(C(F)(F)F)cc2C(F)(F)F)c2ccc(F)cc2)nn1
Second compound 0.0316 µM
  IC50: > 10000 nM
Second compound 0.1 µM
  IC50: > 10000 nM
Second compound 0.316 µM
  IC50: > 10000 nM
Second compound 1 µM
  IC50: > 10000 nM
Second compound 3.16 µM
  IC50: > 10000 nM
Second compound 10 µM
  IC50: > 10000 nM
[1]
  viability, T/C: 99.3%
[2]
  viability, T/C: 107%
[3]
  viability, T/C: 105%
[4]
  viability, T/C: 107%
[5]
  viability, T/C: 104%
[6]
  viability, T/C: 98.9%
[7]
  viability, T/C: 103%
[8]
  viability, T/C: 108%
[9]
  viability, T/C: 101%
[10]
  viability, T/C: 107%
[11]
  viability, T/C: 107%
[12]
  viability, T/C: 104%
[13]
  viability, T/C: 109%
[14]
  viability, T/C: 106%
[15]
  viability, T/C: 105%
[16]
  viability, T/C: 107%
[17]
  viability, T/C: 107%
[18]
  viability, T/C: 93.7%
[19]
  viability, T/C: 106%
[20]
  viability, T/C: 104%
[21]
  viability, T/C: 105%
[22]
  viability, T/C: 107%
[23]
  viability, T/C: 102%
[24]
  viability, T/C: 98.5%
[25]
  viability, T/C: 102%
[26]
  viability, T/C: 103%
[27]
  viability, T/C: 99.1%
[28]
  viability, T/C: 101%
[29]
  viability, T/C: 104%
[30]
  viability, T/C: 92.4%
[31]
  viability, T/C: 97.7%
[32]
  viability, T/C: 100%
[33]
  viability, T/C: 103%
[34]
  viability, T/C: 98.7%
[35]
  viability, T/C: 100%
[36]
  viability, T/C: 94.8%

## CNCc1ccc(-c2[nH]c3cc(F)cc4c3c2CCNC4=O)cc1 + Nc1ccc(C#CCN(C(=O)Cc2ncc(C(F)(F)F)cc2C(F)(F)F)c2ccc(F)cc2)nn1
Second compound 0.0316 µM
  IC50: > 10000 nM
Second compound 0.1 µM
  IC50: > 10000 nM
Second compound 0.316 µM
  IC50: > 10000 nM
Second compound 1 µM
  IC50: > 10000 nM
Second compound 3.16 µM
  IC50: > 10000 nM
Second compound 10 µM
  IC50: > 10000 nM
[1]
  viability, T/C: 101%
[2]
  viability, T/C: 98.2%
[3]
  viability, T/C: 98.2%
[4]
  viability, T/C: 97%
[5]
  viability, T/C: 96.1%
[6]
  viability, T/C: 90.5%
[7]
  viability, T/C: 103%
[8]
  viability, T/C: 99%
[9]
  viability, T/C: 99.9%
[10]
  viability, T/C: 101%
[11]
  viability, T/C: 97.3%
[12]
  viability, T/C: 92.5%
[13]
  viability, T/C: 97.3%
[14]
  viability, T/C: 99.2%
[15]
  viability, T/C: 97%
[16]
  viability, T/C: 96%
[17]
  viability, T/C: 102%
[18]
  viability, T/C: 91.8%
[19]
  viability, T/C: 104%
[20]
  viability, T/C: 96.4%
[21]
  viability, T/C: 94.7%
[22]
  viability, T/C: 102%
[23]
  viability, T/C: 97.3%
[24]
  viability, T/C: 94.9%
[25]
  viability, T/C: 97.3%
[26]
  viability, T/C: 100%
[27]
  viability, T/C: 101%
[28]
  viability, T/C: 93.9%
[29]
  viability, T/C: 95.9%
[30]
  viability, T/C: 89.6%
[31]
  viability, T/C: 95.5%
[32]
  viability, T/C: 96.9%
[33]
  viability, T/C: 91.9%
[34]
  viability, T/C: 93%
[35]
  viability, T/C: 89.6%
[36]
  viability, T/C: 69.9%

## COc1cccc(OCCCN)c1-c1cc(Nc2cnc(C#N)cn2)n[nH]1 + Nc1ccc(C#CCN(C(=O)Cc2ncc(C(F)(F)F)cc2C(F)(F)F)c2ccc(F)cc2)nn1
Second compound 0.0316 µM
  IC50: 590 nM
Second compound 0.1 µM
  IC50: 670 nM
Second compound 0.316 µM
  IC50: 617 nM
Second compound 1 µM
  IC50: 609 nM
Second compound 3.16 µM
  IC50: 277 nM
Second compound 10 µM
  IC50: 52.3 nM
[37]
  viability, T/C: 102%
[38]
  viability, T/C: 100%
[1]
  viability, T/C: 98.2%
[2]
  viability, T/C: 97.3%
[3]
  viability, T/C: 83.4%
[4]
  viability, T/C: 22.1%
[39]
  viability, T/C: 104%
[40]
  viability, T/C: 99%
[7]
  viability, T/C: 95.9%
[8]
  viability, T/C: 98.5%
[9]
  viability, T/C: 99.1%
[10]
  viability, T/C: 23.8%
[41]
  viability, T/C: 102%
[42]
  viability, T/C: 98.2%
[13]
  viability, T/C: 94.7%
[14]
  viability, T/C: 99.7%
[15]
  viability, T/C: 92.3%
[16]
  viability, T/C: 19.4%
[43]
  viability, T/C: 102%
[44]
  viability, T/C: 105%
[19]
  viability, T/C: 101%
[20]
  viability, T/C: 96.3%
[21]
  viability, T/C: 94%
[22]
  viability, T/C: 16.9%
[45]
  viability, T/C: 96.1%
[46]
  viability, T/C: 98.1%
[25]
  viability, T/C: 99.2%
[26]
  viability, T/C: 94.2%
[27]
  viability, T/C: 44.3%
[28]
  viability, T/C: 14.8%
[47]
  viability, T/C: 95.9%
[48]
  viability, T/C: 92.8%
[31]
  viability, T/C: 74.7%
[32]
  viability, T/C: 18.3%
[33]
  viability, T/C: 10.5%
[34]
  viability, T/C: 10.6%

## Cn1ncnc1[C@H]1c2n[nH]c(=O)c3cc(F)cc(c23)N[C@@H]1c1ccc(F)cc1 + Nc1ccc(C#CCN(C(=O)Cc2ncc(C(F)(F)F)cc2C(F)(F)F)c2ccc(F)cc2)nn1
Second compound 0.0316 µM
  IC50: > 100 nM
Second compound 0.1 µM
  IC50: > 100 nM
Second compound 0.316 µM
  IC50: > 100 nM
Second compound 1 µM
  IC50: > 100 nM
Second compound 3.16 µM
  IC50: > 100 nM
Second compound 10 µM
  IC50: > 100 nM
Second compound 0.0316 µM, first compound 0.000316 µM
  viability, T/C: 97.9%
Second compound 0.0316 µM, first compound 0.001 µM
  viability, T/C: 102%
[37]
  viability, T/C: 101%
[38]
  viability, T/C: 98.3%
[1]
  viability, T/C: 101%
[2]
  viability, T/C: 89.2%
Second compound 0.1 µM, first compound 0.000316 µM
  viability, T/C: 107%
Second compound 0.1 µM, first compound 0.001 µM
  viability, T/C: 102%
[39]
  viability, T/C: 102%
[40]
  viability, T/C: 98.1%
[7]
  viability, T/C: 102%
[8]
  viability, T/C: 86.5%
Second compound 0.316 µM, first compound 0.000316 µM
  viability, T/C: 104%
Second compound 0.316 µM, first compound 0.001 µM
  viability, T/C: 106%
[41]
  viability, T/C: 100%
[42]
  viability, T/C: 96.6%
[13]
  viability, T/C: 96%
[14]
  viability, T/C: 89.6%
Second compound 1 µM, first compound 0.000316 µM
  viability, T/C: 105%
Second compound 1 µM, first compound 0.001 µM
  viability, T/C: 101%
[43]
  viability, T/C: 98.7%
[44]
  viability, T/C: 98.1%
[19]
  viability, T/C: 96.8%
[20]
  viability, T/C: 86.2%
Second compound 3.16 µM, first compound 0.000316 µM
  viability, T/C: 102%
Second compound 3.16 µM, first compound 0.001 µM
  viability, T/C: 99%
[45]
  viability, T/C: 93%
[46]
  viability, T/C: 95.4%
[25]
  viability, T/C: 89.2%
[26]
  viability, T/C: 82.6%
Second compound 10 µM, first compound 0.000316 µM
  viability, T/C: 101%
Second compound 10 µM, first compound 0.001 µM
  viability, T/C: 94.9%
[47]
  viability, T/C: 94.8%
[48]
  viability, T/C: 85.7%
[31]
  viability, T/C: 71.9%
[32]
  viability, T/C: 53.4%
